Key:
[1] = molecular target: T1, human ALX receptor (Homo sapiens, UniProt P25090); test: Intracellular calcium measurements (FLIPR), agonistic activity in HEK293-hALXR-Gα16 cells; format: cell-based; settings: Fluo-4 calcium FLIPR, normalized to WKYMVm 10 nM
T1 construct: expressed in transfected cells; host or cells: HEK293 (HEK293-hALXR-Gα16)
T1 sequence (P25090 1-351): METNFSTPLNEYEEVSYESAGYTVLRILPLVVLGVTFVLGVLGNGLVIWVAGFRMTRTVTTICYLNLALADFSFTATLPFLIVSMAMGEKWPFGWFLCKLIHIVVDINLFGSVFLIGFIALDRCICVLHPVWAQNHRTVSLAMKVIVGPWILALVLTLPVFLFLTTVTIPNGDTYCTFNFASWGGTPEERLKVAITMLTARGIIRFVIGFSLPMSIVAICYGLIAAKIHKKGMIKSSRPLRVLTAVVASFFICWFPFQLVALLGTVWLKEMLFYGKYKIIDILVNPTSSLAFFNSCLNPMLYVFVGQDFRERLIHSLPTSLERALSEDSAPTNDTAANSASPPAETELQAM
Procedure: (§1) The ALX receptor and FPRL2 agonistic activities of the compounds of formula (I) are determined in accordance with the following experimental method.
(§2) Intracellular Calcium Measurements:
Cells expressing recombinant human ALX receptor and the G-protein Gα16 (HEK293-hALXR-Gα16) were grown to 80% confluency in Growing Medium (GM). Cells were detached from culture dishes with a cell dissociation buffer (Invitrogen, 13151-014), and collected by centrifugation at 1,000 rpm at rt for 5 min in Assay Buffer (AB) (equal parts of Hank's BSS (Gibco, 14065-049) and DMEM without Phenol Red (Gibco, 11880-028)). After 60 min incubation at 37° C. under 5% CO2 in AB supplemented with 1 μM Fluo-4 (AM) (Invitrogen, F14202), and 20 mM HEPES (Gibco, 15630-056), the cells were washed and resuspended in AB. They were then seeded onto 384-well FLIPR assay plates (Greiner, 781091) at 50′000 cells in 70 μl per well and sedimented by centrifugation at 1,000 rpm for 1 min. Stock solutions of test compounds were made up at a concentration of 10 mM in DMSO, and serially diluted in AB to concentrations required for activation dose response curves. WKYMVm (Phoenix Peptides) was used as a reference agonist. FLIPR384 or FLIPR Tetra instruments (Molecular Devices) were operated according to the manufacturer's standard instructions, adding 4 μl of test compound dissolved at 10 mM in DMSO and diluted prior to the experiment in assay buffer to obtain the desired final concentration. Changes in fluorescence were monitored before and after the addition of test compounds at lex=488 nm and lem=540 nm. Emission peak values above base level after compounds addition were exported after base line subtraction. Values were normalized to high-level control (WKYMVm compound, 10 nM final concentration) after subtraction of the base line value (AB addition).

[2] = molecular target: T2, human FPRL2 (Homo sapiens, UniProt P25089); test: Intracellular calcium measurements (FLIPR), agonistic activity in HEK293-hFPRL2-Gα16 cells; format: cell-based; settings: Fluo-4 calcium FLIPR, normalized to GLY14-Humanin 100 nM
T2 construct: expressed in transfected cells; host or cells: HEK293 (HEK293-hFPRL2-Gα16)
T2 sequence (P25089 1-353): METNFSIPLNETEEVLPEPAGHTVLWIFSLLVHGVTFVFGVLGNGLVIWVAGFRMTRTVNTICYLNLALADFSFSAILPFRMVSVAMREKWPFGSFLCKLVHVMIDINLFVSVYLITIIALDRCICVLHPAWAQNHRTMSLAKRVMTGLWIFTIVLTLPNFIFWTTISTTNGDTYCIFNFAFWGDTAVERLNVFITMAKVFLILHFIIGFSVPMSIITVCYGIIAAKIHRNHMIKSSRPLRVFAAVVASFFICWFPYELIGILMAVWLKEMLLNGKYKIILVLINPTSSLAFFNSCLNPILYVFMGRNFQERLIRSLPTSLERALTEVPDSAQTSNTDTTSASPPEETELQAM
Procedure: as §1, §2
Cells expressing recombinant human FPRL2 and the G-protein Gα16 (HEK293-hFPRL2-Gα16) were grown to 80% confluency in Growing Medium (GM). […] Stock solutions of test compounds were made up at a concentration of 10 mM in DMSO, and serially diluted in AB to concentrations required for activation dose response curves. Gly14-Humanin (Humanin peptide with replacement of Serine by Glycine at position 14, Phoenix Peptides) was used as a reference agonist. FLIPR384 or FLIPR Tetra instruments (Molecular Devices) were operated according to the manufacturer's standard instructions, adding 4 μl of test compound dissolved at 10 mM in DMSO and diluted prior to the experiment in assay buffer to obtain the desired final concentration. Changes in fluorescence were monitored before and after the addition of test compounds at lex=488 nm and lem=540 nm. Emission peak values above base level after compounds addition were exported after base line subtraction. Values were normalized to high-level control (GLY14-Humanin compound, 100 nM final concentration) after subtraction of the base line value (AB addition).

Row | SMILES | EC50 [1] [nM] | EC50 [2] [nM]
1 | O=C(NCCCCN1CCCC1)[C@H]1[C@H](C(=O)NCc2cc(F)cc(C(F)(F)F)c2)[C@@H]2C=C[C@H]1C21CC1 (racemic) [Example 362, (5R*)—N^5-(3-Fluoro-5-trifluoromethylphenyl-methyl)-(6R*)—N^6-(4-pyrrolidino-butyl)-(4S*,7R*)-[4,7-ethenylene-spiro[2.4]heptane]-5,6-dicarboxamide] | 9090 | 306
2 | CC(C)(C)OC(=O)CCCNC(=O)[C@H]1[C@H](C(=O)Nc2ccc(Br)cc2)[C@@H]2C=C[C@H]1C21CC1 (racemic) [Example 89, (5R*)—N^5-(4-Bromophenyl)-(6R*)—N^6-(3-tert-butoxycarbonyl-propyl)-(4S*,7R*)-[4,7-ethenylene-spiro[2.4]heptane]-5,6-dicarboxamide] | 191 | 2470
3 | O=C(NCCCCN1CCCC1)[C@H]1[C@H](C(=O)NCc2c(F)cc(F)cc2F)[C@@H]2C=C[C@H]1C21CC1 (racemic) [Example 346, (5R*)—N^5-(2,4,6-Trifluorophenyl-methyl)-(6R*)—N^6-(4-pyrrolidino-butyl)-(4S*,7R*)-[4,7-ethenylene-spiro[2.4]heptane]-5,6-dicarboxamide] | 1540 | 508
4 | CC(C)(C)OC(=O)N1CCC(NC(=O)[C@H]2[C@H](C(=O)Nc3ccc(Br)cc3)[C@@H]3C=C[C@H]2C32CC2)CC1 (racemic) [Example 94, (5R*)—N^5-(4-Bromophenyl)-(6R*)—N^6—(N-tert-butoxycarbonyl-piperidin-4-yl)-(4S*,7R*)-[4,7-ethenylene-spiro[2.4]heptane]-5,6-dicarboxamide] | 218 | 1040

More lines, in order of falling EC50 [1], values ahead:

Row | EC50 [1] [nM] | EC50 [2] [nM] | SMILES
5 | 288 | 15300 | CC(=O)c1csc(CNC(=O)[C@H]2[C@H](C(=O)NCCCN(C)C)[C@H]3C=C[C@@H]2C32CC2)n1 (racemic) [Example 267, (5R*)—N^5-(4-Acetyl-thiazol-2-yl-methyl)-(6R*)—N^6-(3-dimethylamino-propyl)-(4S*,7R*)-[4,7-ethenylene-spiro[2.4]heptane]-5,6-dicarboxamide]
6 | 47 | 140 | O=C(NCCCCN1CCCC1)C1C(C(=O)NCc2ccc(Br)cc2)C2C=CC1C21CC1 (racemic) [Example 118, (5R*)—N^5-(4-Bromophenyl-methyl)-(6R*)—N^6-(4-pyrrolidin-1-yl-butyl)-(4S*,7R*)-[4,7-ethenylene-spiro[2.4]heptane]-5,6-dicarboxamide]
7 | 24 | 363 | CCn1nc(CCNC(=O)[C@H]2[C@H](C(=O)Nc3ccc(Br)cc3)[C@@H]3C=C[C@H]2C32CC2)cc1C (racemic) [Example 62, (5R*)—N^5-(4-Bromophenyl)-(6R*)—N^6-(2-(1-ethyl-5-methyl-1H-pyrazol-3-yl)-ethyl)-(4S*,7R*)-[4,7-ethenylene-spiro[2.4]heptane]-5,6-dicarboxamide]
8 | 1.4 | 532 | O=C(NCCCCN1CCCC1)C1C(C(=O)Nc2ccc(Br)nc2)C2C=CC1C21CC1 (racemic) [Example 114, (5R*)—N^5-(2-Bromopyridin-5-yl)-(6R*)—N^6-(4-pyrrolidin-1-yl-butyl)-(4S*,7R*)-[4,7-ethenylene-spiro[2.4]heptane]-5,6-dicarboxamide]
9 | 1.3 | 543 | NCCCCCNC(=O)[C@H]1[C@H](C(=O)Nc2ncc(Br)s2)[C@@H]2C=C[C@H]1C21CC1 (racemic) [Example 302, (5R*)—N^5-(5-Bromo-thiazol-2-yl)-(6R*)—N^6-(5-amino-pentyl)-(4S*,7R*)-[4,7-ethenylene-spiro[2.4]heptane]-5,6-dicarboxamide]
10 | 0.61 | 382 | NCCCCCNC(=O)C1C(C(=O)Nc2ncc(Br)s2)C2C=CC1C21CC1 [Example 322, (5R)—N^5-(5-Bromo-thiazol-2-yl)-(6R)—N^6-(5-amino-pentyl)-(4S,7R)-[4,7-ethenylene-spiro[2.4]heptane]-5,6-dicarboxamide]
